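All cell lines were grown in 96-well plates and treated with compound for 48 hours. GI50 = concentration required for 50% inhibition of growth. TGI: total growth inhibition.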
Tests used:
Experiment in all cases: DTP human tumour cell line panel, 48 h
RXF-631 renal = test system: RXF-631 renal
KM20L2 colon = test system: KM20L2 colon
T-47D breast = test system: T-47D breast
MDA-N = test system: MDA-N
MCF7 breast = test system: MCF7 breast
PC-3 prostate = test system: PC-3 prostate

Row | SMILES | TGI (RXF-631 renal) [µM] | TGI (KM20L2 colon) [µM] | TGI (T-47D breast) [µM] | TGI (MDA-N) [µM] | TGI (MCF7 breast) [µM] | TGI (PC-3 prostate) [µM] | GI50 (T-47D breast) [µM] | GI50 (MCF7 breast) [µM] | GI50 (PC-3 prostate) [µM]
1 | CN=C(NC(=S)N(C)C)N(C)C | > 100 | > 100 | – | – | – | – | – | – | –
2 | C#CC[N+](C)(CC#C)CC#C | > 100 | > 100 | – | – | – | – | – | – | –
3 | Cc1c(CCO)c(=O)n2c([nH]c3ccccc32)c1C#N | – | > 100 | – | – | – | – | – | – | –
4 | COc1cc(OC)c2nccc(NCCCN(C)C)c2c1[N+](=O)[O-] | – | – | > 100 | > 100 | > 100 | > 100 | – | – | –
5 | O=S(=O)(O)c1ccc(N=Nc2nc(C(F)(F)F)c(C(F)(F)F)[nH]2)cc1 | > 100 | > 100 | – | – | – | – | – | – | –
6 | Cc1cc(Nc2nc(-c3cccnc3)nc3ccccc23)n[nH]1 | – | – | > 75.4 | – | > 100 | > 100 | 2.02 | 1.28 | 1.85
7 | COc1ccc(/C=c2\sc3n(c2=O)C2C(NN=3)N(C)C(=O)N2C)cc1 (stereo not given) | – | – | > 100 | – | > 100 | > 100 | 1.56 | 0.384 | 0.444
8 | CN(COC(=O)c1ccccc1)c1nc(N(C)COC(=O)c2ccccc2)nc(N(C)COC(=O)c2ccccc2)n1 | – | – | > 100 | > 100 | > 100 | > 100 | – | – | –
9 | Nc1c(O)cc(N=C2C(=O)C=CC=C2C(=O)O)c(O)c1C(=O)O | > 100 | > 100 | – | – | – | – | – | – | –
10 | O=[N+]([O-])c1ccc(Oc2nc(Nc3ccc(O[C@H]4CO[C@H]5[C@@H]4OC[C@@H]5O)c(Cl)c3)ncc2F)c(Cl)c1 | – | – | 8.06 | – | 4.16 | 7.04 | 1.13 | 1.66 | 1.66
11 | COC(=O)C1C=CCON2CCc3c(n(C)c4ccccc34)C12 (stereo not given) | > 100 | > 100 | – | – | – | – | – | – | –
12 | Cc1ccc(C(=O)N(Cc2ccccc2)Cc2ccccc2)cc1N=NN(C)C | – | – | 75 | > 100 | 65.9 | > 100 | – | – | –
13 | Oc1ccc(-c2nc3ccc4[nH]ncc4c3c3c2CCCC3)c(F)c1 | – | – | 6.61 | – | 20.7 | 14.8 | 1.57 | 4.91 | 2.75
14 | CCN1C(=O)CCCc2c1ccc(Nc1ncc(Cl)c(NC3[C@@H](C(N)=O)[C@@H]4C=C[C@H]3C4)n1)c2OC (stereo not given in full) | – | – | 14.3 | – | 6.7 | 18 | 1.91 | 0.618 | 1.49
15 | O=C(CCC(=O)Nc1ccc(Cl)c(Cl)c1)CC(=O)c1ccc(F)cc1 | > 100 | > 100 | – | – | – | – | – | – | –
16 | CN(C)c1nnnn1-c1c(N)n(C)c(=O)n(C)c1=O | > 100 | > 100 | – | – | – | – | – | – | –
17 | Cc1ccc(NC(=O)C2C(=O)N(c3ccc(C)c(C)c3)C(=O)/C2=N\NC(N)=O)cc1C (stereo not given) | – | > 100 | – | – | – | – | – | – | –
18 | COc1ccc(C(c2ccc(OCCN(C)C)cc2)c2cc3ccccc3c3ccccc23)cc1 (stereo not given) | – | – | 3.12 | – | 3.61 | 3.5 | 1.47 | 1.81 | 1.76
19 | N#Cc1c(Br)n(C2OC(CO)C(O)C2O)c2ncnc(N)c12 (stereo not given) | – | – | 21 | – | 4.01 | 18.6 | 0.498 | 0.631 | 0.811
20 | Cn1c(=O)c(NC(=O)C(Cl)(Cl)Cl)nc2ccccc21 | > 100 | > 100 | – | – | – | – | – | – | –

Row | SMILES | TGI (RXF-631 renal) [µM] | TGI (KM20L2 colon) [µM] | TGI (T-47D breast) [µM] | TGI (MDA-N) [µM] | TGI (MCF7 breast) [µM] | TGI (PC-3 prostate) [µM] | GI50 (T-47D breast) [µM] | GI50 (MCF7 breast) [µM] | GI50 (PC-3 prostate) [µM]
21 | CCCCCCCCCCCCCCCCNCCCN(C)CCCN | – | 32.7 | – | – | – | – | – | – | –
22 | Cn1nc(-c2ccc(Cl)cc2)nc2c(=O)n(C)c(=O)nc1-2 | – | – | 3.43 | – | 1.57 | 7.9 | 1.12 | 0.594 | 1.19
23 | CCCCC(C)C(OC(=O)CC(CC(=O)O)C(=O)O)C(CC(C)CC(O)CCCCC(O)CC(O)C(C)N)OC(=O)CC(CC(=O)O)C(=O)O (stereo not given) | > 100 | > 100 | – | – | – | – | – | – | –
24 | S=c1nc(COc2ccc(Cl)cc2Cl)[nH][nH]1 | – | > 100 | – | – | – | – | – | – | –
25 | O=C(O)C1CC2(C1)CC(C(=O)O)C2 (stereo not given) | – | – | > 100 | > 100 | > 100 | > 100 | – | – | –
26 | CCn1c(SC(C)C(=O)c2c(C)n(C)n(-c3ccccc3)c2=O)nc2ccccc2c1=O (stereo not given) | – | > 100 | – | – | – | – | – | – | –
27 | CS(=O)(=O)NNS(=O)(=O)c1ccccc1 | – | > 100 | – | – | – | – | – | – | –
28 | O=C(NCCO)c1ccc([N+](=O)[O-])cc1 | > 100 | > 100 | – | – | – | – | – | – | –
29 | Cc1cc(S(=O)(=O)/N=C/N(C)C)c(SC(=O)c2ccc(Cl)cc2)cc1Cl | – | – | – | – | > 100 | 90.8 | – | 37.1 | 27.6
30 | CC(C)(C)c1ccc(OC(=O)Nc2ccc(O)c(C(=O)O)c2)cc1 | – | – | > 100 | – | > 100 | > 100 | – | – | –
31 | Cc1nc2c(o1)C(=Nc1ccccc1)c1ccccc1C2=O | – | 31.2 | – | – | – | – | – | – | –
32 | COc1cccc(-c2ccc3c(c2)C2CCN(Cc4ccccc4)C3C2)c1 (stereo not given) | – | – | 38.5 | – | 19.5 | 65.4 | 5.19 | 4.34 | 6.99
33 | COc1cccc(-c2nn(-c3ccccc3)cc2-c2ccnc(NCCNC(=O)Nc3cccc(C(F)(F)F)c3)c2)c1 | – | – | 6.01 | – | 4.89 | 5.24 | 2.23 | 2.07 | 2.02
34 | Cc1noc2c1C(=O)CCC2 | – | > 100 | – | – | – | – | – | – | –
35 | CC(=O)N1N=C(c2ccc(Nc3ccnc4cc(Cl)ccc34)cc2)CC1c1ccc(Cl)cc1 (stereo not given) | – | – | > 100 | – | > 100 | > 100 | 1.57 | 4.04 | 3.02
36 | N#CC1CCCCOCCOCCOCCOCCOCCCCCC1=O (stereo not given) | > 100 | > 100 | – | – | – | – | – | – | –
37 | COc1cccc(CSCC(=O)O)c1 | – | – | > 100 | > 100 | > 100 | > 100 | – | – | –
38 | CN(Cc1cccc(F)c1)c1ccc(CO)c(Cl)c1 | – | – | 3.92 | – | 26.3 | 98.8 | 0.548 | 1.03 | 23.7
39 | O=C1C2=C(c3ccccc31)C(c1ccccc1)N1C(=O)CSC1=N2 (stereo not given) | > 100 | > 100 | 77.6 | 47.3 | > 100 | > 100 | – | – | –

Source: PubChem BioAssay (NCI)
